In patent US20060100264A1, “3,3'-Diindolylmethane immune activating compositions” (priority 2004, published 2006):

Assays:
Type in all cases: cell-based, human
[1] = test system: MHC-I complex; test: Flow cytometry of cell surface MHC-I expression (FITC-conjugated HLA-ABC antibody); conditions: no IFNγ
Method: Induced expression of the MHC-I complex is a well-established and important down-stream target of IFNγ-mediated signal transduction. To examine further the possible synergistic effects of DIM on a significant metabolic product of IFNγ signaling, we tested the effects of co-treatment with DIM on IFNγ induced expression of MHC-I complex in MCF-7 cells.
Flow cytometry analysis of cell surface MHC-I expression was conducted using FITC-conjugated HLA-ABC antibody. In an initial control experiment, cultured MCF-7 cells were pre-treated with 30 μM DIM for 48 hours and then with or without 10 ng/mL IFNγ for another 16 hours. […] In a subsequent experiment in which cells were treated with a range of IFNγ concentrations and analyzed with the anti-MHC-I antibody, a strong signal indicative of IFNγ-induced MHC-I expression was detectable at 0.1 ng/mL and appeared to plateau at 10 ng/mL. In cells treated with vehicle control only, MHC-I expression was not detected in greater than 99% of cells.
Exposure to DIM of cells treated with 10 ng/mL of IFNγ, about 95% of which expressed MHC-I, produced a strong time dependent increase in MFV from 76.04 to 131.41. […] As expected, addition of an IFNγ blocking antibody into the medium before the treatments abrogated the inducing effects of co-treatments of IFNγ and DIM on MHC-I expression, confirming the requirement of the cytokine for the observed effects.

[2] = test system: MHC-II; test: MHC-II expression in MCF-7 cells
From the text: In an analogous further experiment, we observed no effect of DIM or IFNγ on MHC-II expression in the MCF-7 cells.

[3] = test system: HLA-A, HLA-B, HLA-C, β-microtubulin, TAP1 and TAP2; test: RT-PCR of MHC-I components and transporters in MCF-7 cells
From the text: RT-PCR was used to examine the expression of the four major components of human MHC-I, including HLA-A, HLA-B, HLA-C, and β-microtubulin, as well as two important associated transporters, TAP1 and TAP2. […] As expected, the expressions of these genes were increased 2-8 fold by treatment with IFNγ.

[4] = test system: interferon-inducible protein 56 (p56); test: p56 mRNA expression in DIM-treated MCF-7 cells (cDNA microarray, Northern blot, quantitative RT-PCR)
Method: Immune response activating effects of the DIM analogs are examined with cell-based assays for cytokine and cytokine receptor expression. […] We also used a sensitive sandwich ELISA assay to examine levels of IFNγ in medium from confluent cultures of MCF-7 cells that were treated for up to 3 days. DIM derivatives confirmed to have immune response activating activity in our reporter and ELISA assays are subsequently screened in a whole animal cytokine production and Y. enterocolitica infection studies, as described below in Examples VIII and IX.
An initial cDNA gene expression microarray screen of human breast cancer MCF-7 cells treated with DIM, followed by confirmation of results using Northern blots and quantitative RT-PCR, established the transcriptional activation of IFNγ, IFNγ receptor (IFNGR1), oligoadenylate-synthase (OAS) family member protein 69 (p69-OAS), and interferon-inducible protein 56 (p56), a protein closely related to OAS. […] Maximum induction for IFNγ, IFNGR1, p69-OAS and p56 were 4.6, 3.8, 3.2 and 4.0 fold, respectively.

c1ccc2c(Cc3c[nH]c4ccccc34)c[nH]c2c1 [DIM, 3,3′-Diindolylmethane]
Expression of the MHC-I complex, DIM treatment alone [1]: no significant effect
Effect on MHC-II expression [2]: no effect
Expression levels of the six genes (MHC-I components, TAP1, TAP2) above vehicle/background [3]: not significantly enhanced
Maximum induction of p56 mRNA ([4]; MCF-7 cells treated with DIM): 4.0 fold
Treatment time at which p56 expression was fully induced ([4]; MCF-7 cells treated with DIM): 6 h
p56 mRNA level following 48 h of DIM treatment ([4]; MCF-7 cells, 48 h): returned to near control levels
